Results as given in US20110118309A1, “USE OF HDAC INHIBITORS FOR THE TREATMENT OF HODGKIN'S DISEASE” (priority 2008, published 2011).

Assays:
[1] = test system: RPMI 6666; experiment: Single agent anti-tumor activity of LBH589 in Hodgkins Lymphoma cell lines in vitro (growth inhibition and cell kill); type: cell-based; conditions: RPMI 6666, Hodgkins Lymphoma
Description: (§1) Bcl2 may be a patient stratification marker
(§2) Single agent anti-tumor activity of LBH589 in Hodgkins Lymphoma cell lines in vitro is outlined in table I.

[2] = test system: HD-MY-Z; experiment: as above; type: cell-based
Description: as §1, §2

[3] = test system: L-428; experiment: as above; type: cell-based; conditions: L-428, Hodgkins Lymphoma
Description: as §1, §2

[4] = test system: E[…]-myc mouse lymphoma model; experiment: E[…]-myc mouse lymphoma model; type: in vivo
Description: as §1

[5] = test system: CTCL mouse model; experiment: CTCL mouse model; type: in vivo
Description: as §1

[6] = test system: CTCL cell lines; experiment: Sensitivity of CTCL cell lines; type: cell-based
Description: as §1

[7] = test system: Hodgkin lymphoma cell lines, RPMI6666, HD-MY-Z, and L428; experiment: Proliferation and viability of 3 Hodgkin lymphoma cell lines; type: cell-based; conditions: range over 3 HL cell lines; units printed in the value (picomolar, nanomolar)
Description: as §1

[8] = test system: Cell lines of mantle cell and follicular lymphoma; experiment: Sensitivity of mantle cell and follicular lymphoma cell lines; type: cell-based
Description: as §1

[9] = Homo sapiens, read-out: IC50: Concentration of LBH589 required to inhibit growth of cell line by 50%

## Cc1[nH]c2ccccc2c1CCNCc1ccc(/C=C/C(=O)NO)cc1 [LBH589, N-hydroxy-3-[4-[[[2-(2-methyl-1H-indol-3-yl)-ethyl]-amino]methyl]phenyl]-2E-2-propenamide]
[1]; [9]
  IC50: 0.2 nM
[1]; in nM
  LD90: Concentration of LBH589 required to kill a cell line population by 90%: 274.7
[2]; in nM
  LD90: Concentration of LBH589 required to kill a cell line population by 90%: >10,000
[2]; read-out: IC50: Concentration of LBH589 required to inhibit growth of cell line by 50%
  IC50: 50.8 nM
[3]; [9]
  IC50: 10.5 nM
[3]
  LD90: Concentration of LBH589 required to kill a cell line population by 90%: 57.5 nM
[4]
  regression of lymphoma: produces regression
  survival: extends survival
[5]
  tumor regression: profound tumor regression
[6]
  sensitivity to LBH589: extremely sensitive
[7]
  IC50: 0.2 to 50 nM
[8]
  sensitivity to LBH589: extreme sensitivity
